Source: patent US20230295137A1, “COVALENT EGFR INHIBITORS AND METHODS OF USE THEREOF” (DANA-FARBER CANCER INSTITUTE, INC., priority 2020, published 2023)

Tests used:
[1] = tested on: EGFR mutant L858R Ba/F3 cells; experiment: Ba/F3 cell proliferation (Cell Titer Glo), EGFR L858R; format: cell-based, murine; conditions: Mus musculus, BaF3, Ba/F3 cells with EGFR L858R, 72 hours exposure, read-out: L BaF3
Text: (§1) The selectivity between wild-type EGER and EGFR containing one or more mutations as described herein can also be measured using cellular proliferation assays where cell proliferation is dependent on kinase activity. For example, murine Ba/F3 cells transfected with a suitable version of wild-type EGFR (such as VIII; containing a WT EGFR kinase domain), or Ba/F3 cells transfected with L858R/T790M, Del/T790M/L718Q, L858R/T790M/L718Q, L858R/T790M/C797S, Del/T790M/C797S, L858R/T790M/I941R, or Exon 19 deletion/T790M can be used.
(§2) The EGFR mutant L858R Ba/F3 cells have been previously described (Zhou, W., et al. Nature 482, 2009, 1070-1074). […]
(§3) Growth and inhibition of growth was assessed by the Cell Titer Glo assay (Promega, Madison, WI) and was performed according to the manufacturer's instructions. The Cell Titer Glo assay is a luminescence-based method used to determine the number of viable cells based on quantitation of the ATP present, which is directly proportional to the amount of metabolically active cells present. Ba/F3 cells of different EGFR genotypes were exposed to compounds for 72 hours and the number of cells used per experiment was determined empirically as has been previously established (Zhou, et al., Nature 2009). […]

[2] = tested on: EGFR L858R/C797S Ba/F3 cells; experiment: Ba/F3 cell proliferation (Cell Titer Glo), EGFR L858R/C797S; format: cell-based, murine; conditions: Mus musculus, BaF3, Ba/F3 cells with EGFR L858R/C797S, 72 hours exposure, read-out: L/C797S
Text: as §1, §2, §3

C=CC(=O)Nc1cc(C(=O)Nc2nc3cccc(C)c3n2[C@@H]2CCCCN(C(C)=O)C2)cs1 [Compound 002] showed an EC50 [1] of 110 nM and an EC50 [2] of 430 nM.

Compound C=CC(=O)Nc1csc(C(=O)Nc2nc3cccc(C)c3n2[C@@H]2CCCCN(C(C)=O)C2)c1 [Compound 009] has an EC50 [1] of 62 nM and an EC50 [2] of 173 nM.
